Source: patent US10729643B2, “Methods for administration and methods for treating cardiovascular diseases with resiniferatoxin” (priority 2013, dated 2020)
“Also recorded” adds a separate entry of the source.

Columns and labels:
IL-1 β = assay: Cardiac inflammatory cytokine IL-1β levels after MI; format: in vivo, rat; details: epicardial RTX during MI; 1 day or 1 week after MI
Source text: (§1) This example illustrates local anti-inflammatory effects of RTX in the infarcted heart. Myocardial ischemia causes the production and release of several metabolites including bradykinin, prostaglandins and protons that stimulate cardiac sympathetic afferent nerve endings leading to increases in BP, HR and sympathetic nerve activity. As cardiac TRPV1-expressing sympathetic afferents also subserve a “dual sensory-efferent” function and release pro-inflammatory neuropeptides, we hypothesized that plasma extravasation and cardiac neuroinflammation follows myocardial ischemia. […] Inflammation in the infarct area may be due to tissue death whereas in peri-infarct and remote areas may be due to cardiac sympathetic afferent mediated neuroinflammation. This may explain why RTX prevented cardiac inflammation in non-infarct areas to a greater extent than in the infarct area.

rats = details: subcutaneous and epidural administration; cited from earlier work
sham and CHF rats = assay: Basal sympathetic tone (RSNA, CSNA, urinary NE) and arterial baroreflex function
[1] = test system: infarcted heart / CSAR activation; assay: Cardiac plasma extravasation (Evans Blue area); format: in vivo, rat
Source text: as §1

[2] = test system: cardiac sympathetic afferent reflex (CSAR); assay: CSAR activation: cardiovascular and sympathetic responses to epicardial capsaicin or bradykinin; format: in vivo, rat; details: for cardiovascular responses to acute epicardial application of capsaicin and bradykinin: sham rats
Procedure: (§2) In order to desensitize cardiac sympathetic afferents in rats, resiniferatoxin (RTX, 1 mg; Sigma Aldrich) was dissolved in 2 ml of ethanol and mixed with 18 ml of Tween in isotonic saline. RTX (50 μg/ml) was applied twice on the entire left and right ventricles with a swab just prior to coronary ligation. The dose of RTX was determined by preliminary experiments in which we found nearly complete ablation of TRPV1-expressing cardiac nerve endings on the surface of the rat heart for more than 10 weeks. Rat surgery was performed 9-11 weeks post-MI. Rats were anesthetized with urethane (800 mg/kg ip) and α-chloralose (40 mg/kg ip). Renal sympathetic nerve activity (RSNA) and cardiac sympathetic nerve activity (CSNA) were recorded for evaluating basal renal and cardiac sympathetic tone.
In another parallel set of experiments, we further confirmed the efficiency of RTX-induced TRPV1-expressing CSAR afferent ablation functionally by epicardial application of capsaicin and bradykinin (10 μg/ml) in sham+RTX rats treated with various doses (0.5 μg/ml, 5 μg/ml and 50 μg/ml) and at various time points (1 week, 4-6 weeks, 9-11 weeks and 6 months after RTX). […] Therefore, a higher dose greater than 5 μg/ml should be used for epicardial administration.
To determine activation of the CSAR, epicardial application of capsaicin and bradykinin was used to effectively stimulate the cardiac sympathetic afferents (Zahner et al. J. Physiol. 2003; 551:515-523). The time interval between capsaicin and bradykinin was about 15-20 min to allow the arterial pressure (AP), heart rate (HR) and renal sympathetic nerve activity (RSNA) to return to, and stabilize at their control levels.

[3] = test system: non-infarcted LV and IVS walls of sham and CHF rats; assay: Cardiac fibrosis: picrosirius red staining and western blot of fibrotic markers; format: in vivo, rat
Source text: This example illustrates the effects of RTX on cardiac fibrosis in sham and CHF rats. Considering that RTX-mediated reduction in LVEDP in CHF rats may be related to an improvement in cardiac compliance, we further evaluated cardiac fibrosis using picrosirus red staining and protein expression of two fibrotic markers (a smooth muscle actin and fibronectin) as well as their upstream activator, transforming growth factor (TGF) β receptor I in the non-infarcted LV and inter-ventricular septum (IVS) walls from sham and CHF rats treated with either vehicle or RTX. For histopathology, the rat heart was fixed in 10% phosphate buffered formalin, embedded in paraffin, and cut into 10 μm serial sections from apex to base. Picrosirius red staining was performed to detect myocardial fibrosis. Immunohistochemistry staining of cleaved caspase 3 (CC3) was also performed in paraffin sections from the same heart tissues which were used for picrosirius red staining experiments.

post MI rats = assay: Long-term survival of post MI rats; format: in vivo, rat
Source text: This example illustrates effects of RTX on the long-term survival rate of post MI rats. […] Over a 6 month period over 50% of vehicle—treated rats died. This contrasts with under 20% of RTX treated—rats.

[4] = target: T1, TRPV1-expressing cardiac afferents (Rattus norvegicus, UniProt O35433); assay: TRPV1 immunofluorescence in cardiac nerve endings after epicardial RTX; format: in vivo
T1 construct: from tissue; host or cells: cardiac (epicardial) nerve endings of male Sprague-Dawley rats, in vivo
T1 sequence (O35433 whole entry): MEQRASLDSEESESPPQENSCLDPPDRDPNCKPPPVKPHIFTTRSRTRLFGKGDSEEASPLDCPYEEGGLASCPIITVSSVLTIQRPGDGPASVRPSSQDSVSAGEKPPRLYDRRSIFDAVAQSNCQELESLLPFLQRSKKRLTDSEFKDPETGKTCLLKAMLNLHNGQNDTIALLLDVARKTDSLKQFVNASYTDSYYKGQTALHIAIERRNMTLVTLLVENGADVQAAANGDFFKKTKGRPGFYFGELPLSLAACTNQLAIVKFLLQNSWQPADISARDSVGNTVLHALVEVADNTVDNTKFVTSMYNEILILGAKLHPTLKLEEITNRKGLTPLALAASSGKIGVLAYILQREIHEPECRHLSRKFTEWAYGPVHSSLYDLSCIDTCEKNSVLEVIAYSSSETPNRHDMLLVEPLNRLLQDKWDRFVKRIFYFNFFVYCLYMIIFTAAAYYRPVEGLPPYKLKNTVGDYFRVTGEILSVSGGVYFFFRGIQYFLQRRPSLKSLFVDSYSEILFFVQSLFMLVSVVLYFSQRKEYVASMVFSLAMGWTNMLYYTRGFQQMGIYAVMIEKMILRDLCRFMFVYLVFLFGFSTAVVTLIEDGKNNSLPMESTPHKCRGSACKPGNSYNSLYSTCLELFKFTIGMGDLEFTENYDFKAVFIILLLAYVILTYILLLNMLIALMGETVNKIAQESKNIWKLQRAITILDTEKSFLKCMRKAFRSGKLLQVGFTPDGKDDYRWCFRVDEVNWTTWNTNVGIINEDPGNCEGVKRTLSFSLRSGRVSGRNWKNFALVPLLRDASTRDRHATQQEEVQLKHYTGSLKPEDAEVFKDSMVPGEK
Procedure: as §2
More specifically, we examined TRPV1 protein expression in cardiac nerve endings from vehicle and RTX-treated rats using immunofluorescence. Experiments were performed on male Sprague-Dawley rats weighing −400 to −500 g. […] Cardiac function in all experimental animals was measured 2 and 6 weeks after MI by echocardiography (VEVO 770, Visual Sonics, Inc.) as described in (Wang et al., J. Appl. Physiol. 2010; 108:1365-1375; Wang et al. 2, Am. J. Physiol. Regul. Integr. Comp. Physiol. 2012; 320:R1260-R1270; and Wang et al. 3, J. Physiol. 2010; 588:5033-5047). […]

[5] = sham and CHF rats, 9-11 weeks after epicardial RTX 50 μg/ml

C=C(C)[C@]12C[C@@H](C)[C@@]34O[C@](Cc5ccccc5)(O[C@@H]1[C@@H]3C=C(COC(=O)Cc1ccc(O)c(OC)c1)C[C@]1(O)C(=O)C(C)=C[C@@H]41)O2 [RTX, resiniferatoxin]
increased IL-1 β expression in peri-infarct and remote areas post MI (IL-1 β): markedly attenuated | increased IL-1 β level in the infarct area (IL-1 β): partially prevented | duration of thermal analgesia with no restoration of pain sensitivity (rats): over 7 days | average slope and Gainmax of arterial baroreflex control of HR and RSNA (sham and CHF rats; CHF rats): significantly increased | basal RSNA and CSNA (sham and CHF rats; CHF rats): lowered | minimum HR and RSNA of arterial baroreflex control (sham and CHF rats; CHF rats): decreased | urinary NE excretion (sham and CHF rats; CHF+RTX vs vehicle treated rats): significantly reduced | average slope, Gainmax, and minimum RSNA or HR of arterial baroreflex control (sham and CHF rats; sham rats): no significant effects | plasma extravasation following CSAR activation by epicardial capsaicin or bradykinin ([1]; chronic CSAR denervation by RTX): largely be abolished | cardiac plasma extravasation after MI (Evans Blue area) ([1]; epicardial RTX at the time of coronary ligation, day 1 to more than 1 week after MI): almost completely abolished | sham rats showing partial recovery of the cardiovascular responses to capsaicin and bradykinin ([2]; 10 weeks after epicardial RTX 5 μg/ml, preliminary experiment): 40% | duration for which CSAR was abolished ([2]; RTX 50 μg/ml applied to the surface of heart): 9-11 weeks | sensitivity to capsaicin and bradykinin ([2]; all rats, 10 weeks after epicardial RTX 50 μg/ml): still insensitive | cardiovascular responses to capsaicin and bradykinin / CSAR sensitivity at 6 months after RTX ([2]; epicardial RTX 50 μg/ml, 6 months): recovery of CSAR sensitivity; also recorded: largely recovered | duration for which cardiovascular responses to capsaicin and bradykinin were abolished ([2]; epicardial RTX 50 μg/ml, time course experiments): more than 10 weeks | bradykinin-induced CSAR activation [2, 5]: greatly attenuated | cardiovascular and sympathetic activation (MAP, HR, RSNA) in response to epicardial capsaicin [2, 5]: almost completely abolished | cardiovascular responses to acute epicardial application of capsaicin and bradykinin ([2]; 1 week after epicardial RTX 5 μg/ml): largely abolished | cardiovascular responses to acute epicardial application of capsaicin and bradykinin ([2]; 1 week after epicardial RTX 50 μ/ml): largely abolished | picrosirus red staining, alpha smooth muscle actin, fibronectin and TGF β receptor I expression ([3]; CHF rats): reduced | picrosirus red staining, fibrotic markers and TGF β receptor I ([3]; sham rats): did not cause any significant change | long-term (6 months) survival rates (post MI rats; CHF rats, epicardial RTX 50 μg/ml at the time of coronary ligation): markedly improved | rats that died over a 6 month period (post MI rats; RTX treated post MI rats (vehicle: over 50%)): under 20% | TRPV1 immunoreactivity in the epicardium ([4]; 1 week, 4-6 weeks and 9-11 weeks after epicardial RTX 50 μg/ml): absent | duration of nearly complete ablation of TRPV1-expressing cardiac nerve endings on the surface of the rat heart ([4]; epicardial RTX 50 μg/ml, preliminary experiments): more than 10 weeks
